Here are results for two compounds from patent US7557145B2, “Inhibition of the asexual reproduction of fungi by eugenol and/or derivatives thereof” (Henkel Kommanditgesellschaft auf Aktien (Henkel KGAA), priority 2003, dated 2009).

What all share (type): cell-based
Assay [1] deals with Aspergillus niger, DSM 1988. The experiment in a line: Sporulation of Aspergillus niger on the surface of an acetate jointing compound. How it is done: Effect on Eugenol on the Sporulation of Aspergillis niger on the Surface of an Acetate Jointing Compound
Commercially available, but preservative-free, one-component silicone jointing compounds curing at room temperature (acetate system, cured 2.2×2.2×0.3 cm pieces of film) were disinfected with 70% EtOH (ethanol) and placed for 24 h in active component solutions with various concentrations (in ethanol, see Table for final concentrations). The test specimens were then re-washed twice with EtOH, rinsed with water (sterile) and dried for 24 h. The test specimens were weighed before and after this treatment and the quantity of active component in the test specimens was thus determined together with the concentration of the active component solution. The test specimens were then placed on wort agar plates and thinly coated with agar in which fungal spores had been incorporated (10^5 CFU/ml Aspergillus niger, DSM 1988). The plates were incubated for 3 days at 25° C. Sporulation was visually evaluated from the test specimens and the sporulation rate in [%] was determined.

The test system of assay [2] is Aspergillus niger (DSM 1988). The experiment in a line: Sporulation of Aspergillus niger on wort agar plates containing active component. How it is done:
Effect of Eugenol and Eugenol Silicic Acid Esters on the Sporulation of Aspergillus niger
Contamination of the surface of wort agar plates with 100 μl of a germ suspension (10^3 CFU/ml) of Aspergillus niger (DSM 1988). Various quantities of active component (solutions in ethanol, final concentrations in % by weight, see Table) were added to the agar plates beforehand. The plates were incubated for 3 days at 25° C. Sporulation was visually evaluated and the sporulation rate in [%] was determined. […]

Assay [3] concerns Aspergillus niger (DSM 1988). Description: Sporulation of Aspergillus niger on a filter surface after 2 applications. The note with it: for Sporulation [%]: filter paper treated twice with 50 μl, 3 days at 25° C. As for the experimental part: Effect of Eugenol on the Sporulation of Aspergillus niger on a Filter Surface After 2 Applications
Filter papers (2×2 cm) were disinfected and treated twice with a 1 hour interval with 50 μl of active-component solutions differing in concentration. The test specimens were then dried. The test specimens were then placed on wort agar plates and the surface of the wort agar plates was contaminated with 100 μl of a germ suspension (10^3 CFU/ml) of Aspergillus niger (DSM 1988). The plates were incubated for 3 days at 25° C. Sporulation was visually evaluated and the sporulation rate in [%] was determined. […] Sporulation was inhibited by increasing concentrations of eugenol and was 90% suppressed at 90 μm.

As to `CC(C)=CCCC(C)=CCCC(C)=CCO` [farnesol, reference compound], the “Sporulation [%]” value in assay [1] (concentration of farnesol 0.4 μm/g jointing compound, 3 days at 25° C.) is 100%; in assay [1] (concentration of farnesol 1.1 μm/g jointing compound, 3 days at 25° C.), 100%; in assay [1] (concentration of farnesol 17 μm/g jointing compound, 3 days at 25° C.), 30%; in assay [2] (comparison test, concentration of farnesol 125 μm), 50%; in assay [3] (concentration 0.5 μm) it was 100%; in assay [3] (concentration 5 μm) it was 100%. Further, the “Sporulation [%]” value in assay [3] (concentration 25 μm) is given as 100%; in assay [3] (concentration 35 μm), 60%; in assay [3] (concentration 50 μm), 80%; in assay [3] (concentration 70 μm) it was 50%; in assay [3] (concentration 90 μm), 40%. Also, the “Inhibition of sporulation compared with eugenol” value was “inhibited, but to a far lesser extent compared with identical concentrations of eugenol” in assay [1] (parallel test series, identical concentrations) and “inhibited, but to a lesser extent compared with identical concentrations of eugenol” in assay [3] (second, parallel test series, identical concentrations).

As for `C=CCc1ccc(O)c(OC)c1` [eugenol, 4-allyl-2-methoxyphenol], the “Sporulation [%]” value in assay [1] (concentration of eugenol 1.7 μm/g jointing compound, 3 days at 25° C.) was 0%; in assay [1] (concentration of eugenol <1 μm/g jointing compound, 3 days at 25° C.), 100%; in assay [1] (concentration of eugenol ca. 3 μm/g jointing compound, 3 days at 25° C.), 0%; in assay [2] (concentration of eugenol 4 μm in wort agar, 3 days at 25° C., visually evaluated), 100%; in assay [2] (concentration of eugenol 40 μm in wort agar, 3 days at 25° C.), 100%; in assay [2] (concentration of eugenol 65 μm in wort agar, 3 days at 25° C.), 100%. Besides, the “Sporulation [%]” value is reported as 80% in assay [2] (concentration of eugenol 90 μm in wort agar, 3 days at 25° C.); 70% in assay [2] (concentration of eugenol 110 μm in wort agar, 3 days at 25° C.); 0% in assay [2] (concentration of eugenol 220 μm in wort agar, 3 days at 25° C.); 0% in assay [2] (concentration of eugenol 330 μm in wort agar, 3 days at 25° C.); 0% in assay [2] (concentration of eugenol 650 μm in wort agar, 3 days at 25° C.); 100% in assay [3] (concentration 0.6 μm). For the same compound, the “Sporulation [%]” value in assay [3] (concentration 6 μm) came to 100%; in assay [3] (concentration 30 μm), 100%; in assay [3] (concentration 45 μm), 100%; in assay [3] (concentration 60 μm) it was 100%; in assay [3] (concentration 90 μm) it was 10%; in assay [3] (concentration 120 μm), 10%. In addition, the “Concentration at which sporulation was completely suppressed” value in assay [1] (silicone jointing compound (acetate system), 3 days at 25° C.) was found to be 1.7 μm/g jointing compound; in assay [2] (wort agar plates, 3 days at 25° C.) it was 220 µM. This compound came in with a Sporulation suppressed in assay [3] (at 90 μm, filter surface after 2 applications) of 90%.
